Measured values: patent publication US20240166626A1, “Compounds and Methods for Preventing, Treating, or Ameliorating Airway Disease” (THOMAS JEFFERSON UNIVERSITY, priority 2021, published 2024)

Target: β2AR (Homo sapiens, UniProt P07550)
Test: cAMP measurement by ELISA in HEK 293 cells stably overexpressing β2AR
Format: cell-based
Experimental: Schematic of screening methodologies for cAMP production and β-arrestin binding. Cells were treated with the unbiased beta-agonist isoproterenol (ISO)±test compounds. The primary high throughput screen utilized a luciferase-based cAMP biosensor, GLOSENSORTM (Promega), and an enzyme complementation-based assay, […]® (DiscoveRx). Independent secondary screening utilized a cAMP ELISA and BRET for β-arrestin recruitment. […] Secondary screen for cAMP production by ELISA. […] Cells were lysed and cAMP production was measured. […] Dose response curve for DFPQ as measured by BRET. […] Data for dose response curve was taken 12 min post ISO addition. n=3. […] Cells were lysed and cAMP production was measured by ELISA. […] Cells were read every three minutes for 18 minutes on a PolarStar Optima plate reader (BMG) to establish peak signal. […] Luminescence was determined at room temperature (23-25° C.) on a PolarStar Optima plate reader (BMG). […] Relative assay bias was calculated from the ratio of normalized cAMP and arrestin recruitment responses. […] BRET was measured using a Tecan Infinite F500 microplate reader. […] Bound [35 S]GTPγS was collected by rapid filtration on GF/B filters, washed 4 times with 4 ml of cold GTPγS wash buffer and analyzed by liquid scintillation counting. […] Immunoprecipitated proteins were separated by SDS-PAGE and analyzed by western blot using a β2AR C-terminal tail or phospho-specific antibody. […]

Sequence of β2AR (P07550 whole entry): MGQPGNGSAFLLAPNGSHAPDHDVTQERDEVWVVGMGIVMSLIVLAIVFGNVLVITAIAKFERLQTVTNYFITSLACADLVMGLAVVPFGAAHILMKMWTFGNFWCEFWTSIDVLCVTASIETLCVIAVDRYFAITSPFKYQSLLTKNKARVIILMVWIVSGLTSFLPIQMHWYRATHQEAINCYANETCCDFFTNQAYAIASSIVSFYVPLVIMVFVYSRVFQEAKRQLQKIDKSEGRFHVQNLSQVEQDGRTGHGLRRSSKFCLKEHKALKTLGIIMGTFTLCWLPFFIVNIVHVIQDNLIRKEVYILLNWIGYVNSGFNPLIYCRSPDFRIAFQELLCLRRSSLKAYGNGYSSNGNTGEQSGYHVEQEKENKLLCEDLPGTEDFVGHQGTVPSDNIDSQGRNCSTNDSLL

effect on ISO-stimulated cAMP production (10 μM DFPQ, 1 μM ISO 10 min, FIG. 1B): no effect
effect on ISO dose response curves, cAMP production readout (increasing concentrations up to 10 μM DFPQ, FIG. 1E): no effect
SMILES: Fc1ccc(Nc2nc(NC3CCCCC3)c3ccccc3n2)cc1F [DFPQ, N^4-cyclohexyl-N^2-(3,4-difluorophenyl)quinazoline-2,4-diamine]
